Assay [1] relates to HepG2. The experiment in a line: Tested for the effective concentration required to inhibit HBV in HepG2.2.15 human liver cells. It counts as functional, cell-based.
Assay [2] concerns WI-38. The experiment in a line: Tested for effective concentration required to inhibit varicella zoster virus (VZV) in WI-38 cells; 30-60. It counts as functional, cell-based. Particulars: Homo sapiens.
Assay [3] concerns Hepatitis B virus. The experiment in a line: Tested for cytotoxic concentration against hepatitis B virus. It counts as functional.
The next assay has as its system HFF. Nature of the assay: Tested for effective concentration required to inhibit human cytomegalovirus (HCMV) in HFF cells. It counts as functional, cell-based.
Assay [4] in a line: Tested for cytotoxic concentration against influenza virus in MDBK cells. It counts as functional. Particulars: Bos taurus.
Assay [5] concerns Hepatitis B virus. Nature of the assay: Tested effective dose against hepatitis B virus in vitro. It counts as functional. The note with it: read-out: ED50 (the source's name).
Assay [6] concerns CEM-SS. Nature of the assay: Tested for effective concentration to inhibit human immunodeficiency virus (HIV) in CEM-SS cells. It counts as functional, cell-based.
Assay [7] has as its system WI-38. Nature of the assay: Tested for effective concentration required to inhibit herpes simplex virus type 1 (HSV-1) in WI-38 cells. It counts as functional, cell-based. The note with it: Homo sapiens.
Assay [8] deals with WI-38. Nature of the assay: Tested for cytotoxic concentration against herpes simplex virus type 1 (HSV-1) in WI-38 cells. It counts as functional. Particulars: Homo sapiens.
Assay [9] concerns WI-38. Nature of the assay: Tested for cytotoxic concentration against varicella zoster virus (VZV) in WI-38 cells. It counts as functional. Particulars: Homo sapiens.
Assay [10] is described as follows: Tested for effective concentration required to inhibit of influenza virus in MDBK cells. It counts as functional, cell-based, Bos taurus.
For assay [11], the system named is HepG2. Nature of the assay: Tested for the cytotoxicity against hepatitis B virus (HBV) in HepG2.2.15 cells. It counts as functional. Particulars: Homo sapiens.
Assay [12] has as its system CEM-SS. Nature of the assay: Tested for cytotoxic concentration against human immunodeficiency virus (HIV) in CEM-SS cells. It counts as functional.

Regarding `C=C1[C@H](CO)[C@@H](O)C[C@@H]1n1cc(C)c(=O)[nH]c1=O`, the EC50 in the assay with HepG2 [1] is above 100 µM.

Regarding `C=C1[C@H](CO)[C@@H](O)C[C@@H]1n1cc(I)c(=O)[nH]c1=O`, the EC50 with HepG2 [1] is 10.5 µM.

In the assay with HepG2 [1], `C=C1[C@H](CO)[C@@H](O)C[C@@H]1n1cnc2c(N)ncnc21` came in with an EC50 of 0.128 µM.

In the assay on HepG2 [1], `Nc1nc(O)c2ncn([C@@H]3C[C@H](CO)[C@@H](O)C3)c2n1` gave an EC50 of 0.05 µM.

Turning to `C=C1[C@@H](CO)[C@H](O)C[C@H]1n1cnc2c(O)nc(N)nc21`, the EC50 in the assay on HepG2 [1] was 100 µM.

Turning to `C=C1[C@H](CO)[C@@H](O)C[C@@H]1n1cnc2c(=O)[nH]c(N)nc21` [ENTECAVIR], the EC50 in the assay with WI-38 [2] was 30 µM; in the assay with HFF it was 15 µM; with Hepatitis B virus [5] it was 0.003 µM; in the assay on HepG2 [1], 0.003 µM; with CEM-SS [6], above 10 µM; with WI-38 [7] it was at least 32 µM. The compound further displayed an EC50 in assay [10] above 80 µM. The CC50 in the assay with Hepatitis B virus [3] is 21 µM; in assay [4] it was 78 µM; with WI-38 [8], above 90 µM; in the assay on WI-38 [9], 120 µM; in the assay with HepG2 [11], 30 µM; in the assay on CEM-SS [12] it was 21 µM.

In the assay on HepG2 [1], `Nc1ccn([C@@H]2CS[C@H](CO)O2)c(=O)n1` [LAMIVUDINE] displayed an EC50 of 0.2 µM.

`Nc1nc(O)c2ncn(CCC(CO)CO)c2n1` [PENCICLOVIR]: the EC50 in the assay on HepG2 [1] is at least 100 µM.

Values taken from ChEMBL document CHEMBL1130554, “BMS-200475, a novel carbocyclic 2-deoxyguanosine analog with potent and selective anti-hepatitis B virus activity in vitro” (Bioorg Med Chem Lett, 1997).
